Where a name gives a salt, the structure may show the parent alone.
Assays:
[1] = system: irritant contact dermatitis induced by sodium dodecyl sulfate (SDS); assay: Model mice of SDS-induced irritant contact dermatitis: auricular thickness; assay type: in vivo, C57BL6/J male mice; conditions: 5 mM topical daily for 4 days + 4% SDS daily; vs SDS + EtOH
Procedure: The effect of KUS121 application on irritant contact dermatitis was evaluated. For modeling irritant contact dermatitis, model mice of irritant contact dermatitis induced by sodium dodecyl sulfate (SDS) was used. Ten-week-old C57BL6/J male mice (purchased from Oriental Bioservice, Inc) were used. The mice were anesthetized by subcutaneously injecting 150 μL of three types of mixed anesthesia. Under anesthesia the following substances were applied for 4 days. After 10 μL of 5 mM KUS121 or 90% EtOH was applied to each side of the left auricle, 10 μL of 4% SDS was applied on each side. The substances were applied daily and the auricular thicknesses were measured immediately before the substance applications.

[2] = system: epidermal thickening and infiltration of inflammatory cells into the dermis; assay: HE staining of auricular sections of MC903 model mice; assay type: in vivo, C57BL/6N female mice; conditions: auricular sections day 11; 5 mM topical daily + MC903; vs MC903 + EtOH
Procedure: (§1) After the blood collection in Example 1, the mice were sacrificed by cervical dislocation and auricular sections were collected. Some of the auricular sections were paraffin-embedded and other sections were served for RNA extraction. The paraffin-embedded sections were observed by hematoxylin-eosin (HE) staining. RNA was extracted from the sections and cDNA was synthesized. The expression levels of various genes were analyzed by real-time PCR with SYBR Green using each cDNA as a template. Gapdh was used as an internal standard.

Keratin 6a (Krt6a) = assay: Krt6a mRNA expression in auricular sections, real-time PCR; assay type: in vivo, C57BL/6N female mice; conditions: auricular sections day 11; Gapdh internal standard; 5 mM topical + MC903; vs MC903 + EtOH
Procedure: as §1

IgE = assay: Serum IgE level (Elisa kit) in MC903 model mice; assay type: in vivo, C57BL/6N female mice; conditions: serum on day 11; 5 mM topical daily + MC903; vs MC903 + EtOH
Procedure: (§2) The effect of KUS121 application on atopic dermatitis was evaluated. For modeling atopic dermatitis, model mice of atopic dermatitis-like skin inflammation induced by repeated applications of MC903, an active vitamin D3 analog, were used. Eight-week-old C57BL/6N female mice were used (purchased from SHIMIZU Laboratory Supplies Co., Ltd.). Under isoflurane anesthesia, the following substances were applied for 10 days. After 10 μL of 5 mM KUS121 (solvent: 90% EtOH) or 90% EtOH was applied to each side of the left auricle, 10 μL of 100 μM MC903 (solvent: 100% EtOH) was applied on each side. […] The auricular thicknesses were measured immediately before the substance application using a constant pressured thickness measuring instrument (Tecloc). The thicknesses were measured immediately before the first substance application and then every other day for ten days. In addition, the effect of KUS121 alone was evaluated by the following substance applications. […] The auricular thicknesses were measured immediately before the first substance application and then every other day for ten days. […] The blood was allowed to stand at room temperature for at least 30 minutes, the serum was separated by centrifugation (1500×g, 10 minutes), and the serum levels of immunoglobulins (IgE and IgG1) was measured using Elisa kit (Bethyl Laboratories).

[3] = system: itching in atopic dermatitis-like skin inflammation induced by MC903; assay: Itching (scratching behavior) and auricular thickness in MC903 model mice, treatment started on day 6; assay type: in vivo, C57BL/6N female mice
Procedure: The effect of KUS121 application on itching was evaluated. For modeling itching, model mice of atopic dermatitis-like skin inflammation induced by repeated applications of MC903 were used. Eight-week-old C57BL/6N female mice (purchased from SHIMIZU Laboratory Supplies Co., Ltd.) were used. Under isoflurane anesthesia, the following substances were applied for 15 days. 10 μL of 100 μM MC903 was applied on each side of both auricles every three days. To each side of the left auricle 10 μL of 5 mM KUS121 was applied daily and to each side of the right auricle 10 μL of 90% EtOH was applied daily. The application of KUS121 or 90% EtOH was started on day 6 from the first substance application; KUS121 or 90% EtOH was applied at first and then MC903 was applied. On day 12 from the start of the treatment, 1 to 2 hours after the substance application, five mice awakened from anesthesia were left in a shooting box (SHINANO manufacturing CO., LTD, W 25×D 25×H 30 cm) and their behavior was recorded from above using a video camera (Victor). Scratching behavior was evaluated by counting the total number of ear contacts by the front paws and determining the total scratching time by the hind paws within one hour from the start of the recording. The data of the five mice were summed and the total values were adopted as the results.

[4] = system: atopic dermatitis-like skin inflammation induced by repeated applications of MC903; assay: Model mice of MC903-induced atopic dermatitis-like skin inflammation: auricle appearance and auricular thickness; assay type: in vivo, C57BL/6N female mice; conditions: 10 μL of 5 mM topically to each side of left auricle daily for 10 days, MC903 every other day; vs MC903 + EtOH
Procedure: The effect of KUS121 application on atopic dermatitis was evaluated. For modeling atopic dermatitis, model mice of atopic dermatitis-like skin inflammation induced by repeated applications of MC903, an active vitamin D3 analog, were used. Eight-week-old C57BL/6N female mice were used (purchased from SHIMIZU Laboratory Supplies Co., Ltd.). Under isoflurane anesthesia, the following substances were applied for 10 days. After 10 μL of 5 mM KUS121 (solvent: 90% EtOH) or 90% EtOH was applied to each side of the left auricle, 10 μL of 100 μM MC903 (solvent: 100% EtOH) was applied on each side. From the start of the substance application, KUS121 or 90% EtOH was applied daily and MC903 was applied every other day. The auricular thicknesses were measured immediately before the substance application using a constant pressured thickness measuring instrument (Tecloc). The thicknesses were measured immediately before the first substance application and then every other day for ten days. In addition, the effect of KUS121 alone was evaluated by the following substance applications. To each side of the left auricle 10 μL of 5 mM KUS121 was applied daily and to each side of the right auricle 10 μL of 90% EtOH was applied daily. The auricular thicknesses were measured immediately before the first substance application and then every other day for ten days. A blood sample was collected from a buccal vein on day 11 from the first substance application (14 hours after the substance application on day 10). The blood was allowed to stand at room temperature for at least 30 minutes, the serum was separated by centrifugation (1500×g, 10 minutes), and the serum levels of immunoglobulins (IgE and IgG1) was measured using Elisa kit (Bethyl Laboratories).
The experiments were performed as in Example 1, except for KUS187 was used in place of KUS121. The appearance of the auricle was observed and the auricular thicknesses were measured. […] The mice applied with MC903 and treated with EtOH had skin redness, desquamation, and crust as well as increased auricular thickness.

IgG1 = assay: Serum IgG1 level (Elisa kit) in MC903 model mice; assay type: in vivo, C57BL/6N female mice; conditions: serum on day 11; 5 mM topical daily + MC903; vs MC903 + EtOH
Procedure: as §2

skin barrier function = assay: Transepidermal water loss and auricular thickness in MC903-applied mice (skin barrier function); assay type: in vivo, C57BL6/N female mice; conditions: 5 mM topical daily for 12 days + MC903 every other day; vs MC903 + EtOH
Procedure: The effect of KUS121 application on skin barrier function was evaluated by determining transepidermal water loss. Six- to eight-week-old C57BL6/N female mice (purchased from Oriental Bioservice, Inc) were used. The mice were anesthetized by subcutaneously injecting 150 μL of three types of mixed anesthesia (1 mg/mL medetomidine hydrochloride, 5 mg/mL mitazolam, 5 mg/mL butorphanol tartrate, solvent: sterile distilled water). Under anesthesia the following substances were applied for 12 days. For each mouse 10 μL of 5 mM KUS121 was applied to each side of the left auricle and 10 μL of 90% EtOH was applied to each side of the right auricle. Some mice were additionally applied with 10 μL of 100 μM MC903 on each side of both auricles every other day; KUS121 or 90% EtOH was applied at first and then MC903 was applied. The levels of transepidermal water loss was determined using APO SCAN AS-VT100 (Asahi Techno Lab. ltd.). The auricular thicknesses were measured immediately before the first substance application and daily for subsequent 12 days. The levels of transepidermal water loss were determined on days 0, 2, 4, 6, 8, 10, 11, and 12 immediately before the substance applications in each day.

Filaggrin (Flg) = assay: Flg mRNA expression in auricular sections, real-time PCR; assay type: in vivo, C57BL/6N female mice; conditions: auricular sections day 11; Gapdh internal standard; 5 mM topical + MC903; vs MC903 + EtOH and EtOH alone
Procedure: as §1

[5] = system: psoriasis induced by repeated applications of 5% imiquimod cream; assay: Model mice of imiquimod-induced psoriasis: auricular thickness; assay type: in vivo, C57BL6/N female mice; conditions: 5 mM topical daily for 6 or 18 days + 5% imiquimod cream; vs imiquimod + EtOH
Procedure: The effect of KUS121 application on psoriasis was evaluated. For modeling psoriasis, model mice of psoriasis induced by repeated applications of 5% imiquimod cream was used. Six- to eight-week-old C57BL6/N female mice (purchased from Oriental Bioservice, Inc) were used. The mice were anesthetized by subcutaneously injecting 150 μL of three types of mixed anesthesia. Under anesthesia the following substances were applied for 6 or 18 days. After 10 μL of 5 mM KUS121 or 90% EtOH was applied to each side of the left auricle, 5 mg of 5% imiquimod cream (MOCHIDA PHARMACEUTICAL CO., LTD.) was applied on each side. KUS121 or 90% EtOH was applied daily and imiquimod cream was applied on days 0, 2, 4, 7, 9, 11, 14, and 16. The auricular thicknesses were measured immediately before the substance applications.

KLK7 = KLK7 mRNA expression in auricular sections of MC903 model mice; assay type: in vivo, C57BL/6N female mice; conditions: mice treated as in Example 1; 5 mM topical + MC903; vs MC903 + EtOH
Procedure: as §2, with “Laboratories). […]” for “Laboratories).”

| Compound | auricular thickness [1] | lesions in HE staining (epidermal thickening, infiltration of inflammatory cells such as eosinophils into the dermis) [2] | Krt6a expression (messenger RNA) (Keratin 6a (Krt6a)) | blood level of IgE (IgE) | scratching behavior (number of ear contacts by front paws, scratching time by hind paws within one hour) ([3]; day 12, 5 mM topical daily from day 6, MC903 every three days, vs MC903 + EtOH) | increase of auricular thickness ([3]; treatment started after 6 days from the start of MC903 application, 5 mM topical daily) | auricular thickness [4] | skin lesion (skin redness, desquamation, crust), appearance of auricle [4] | blood level of IgG1 (IgG1) | auricular thickness (skin barrier function) | transepidermal water loss from auricular skin (skin barrier function) | Flg expression (messenger RNA) (Filaggrin (Flg)) | auricular thickness [5] | KLK7 expression (messenger RNA) (KLK7) |
| --- | --- | --- | --- | --- | --- | --- | --- | --- | --- | --- | --- | --- | --- | --- |
| Cc1cc(F)ccc1-c1ccc(/N=N/c2cc(S(=O)(=O)O)c3ccccc3c2N)cn1 [KUS121, 4-amino-3-[6-(4-fluoro-2-methylphenyl)pyridine-3-ylazo]naphthalene-1-sulfonic acid sodium salt] | the increase was suppressed | suppressed more strongly | weaker | lower | less | suppressed | less increased auricular thickness | less skin lesion | lower | increases were suppressed | increases were suppressed | elevated | No difference | the increase was suppressed |
| CCCCOc1c(C=O)cc(C)cc1-c1ccc(/N=N/c2cc(S(=O)(=O)O)c3ccccc3c2N)cn1 [KUS187, 4-amino-3-[6-(3-formyl-2-butoxy-5-methylphenyl)pyridine-3-ylazo] naphthalene-1-sulfonic acid sodium salt] | – | – | – | – | – | – | less increased auricular thickness | less skin lesion | – | – | – | – | – | – |

Source: US20240216397A1, “COMPOSITION FOR AMELIORATING SKIN TISSUE ABNORMALITY” (Kyoto University, priority 2021, published 2024)
